Measured values as given in patent publication US20040131567A1 (priority 2002, published 2004).

Legend:
[1] = system: Bacillus anthracis Stearns strain; format: cell-based
[2] = system: Bacillus anthracis Ames strain; format: cell-based
[3] = system: Paenibacillus polymyxa, Bacillus licheniformis, Bacillus subtilis, Bacillus sphaericus, Bacillus cereus and a wild Bacillus strain; format: cell-based, Bacillus species; conditions: for average zone of inhibition: 3 replicate assays
[4] = system: dry/cracking and scaly elbows; format: in vivo, human; conditions: regimen tried prior to the inventive composition
psoriasis = conditions: in vivo
Staphylococcus aureus = format: cell-based; design: key: NG = no growth; conditions: S. aureus >10^5 CFU/ml inoculated into 2 ml d-limonene
[5] = system: Staphylococcus epidermidis; format: cell-based; design: key: NG = no growth; conditions: S. epidermidis >10^5 CFU/ml inoculated into 2 ml d-limonene
Enterococcus faecalis = format: cell-based; design: key: NG = no growth; conditions: E. faecalis >10^5 CFU/ml inoculated into 2 ml d-limonene
Enterococcus faecium = format: cell-based; design: key: NG = no growth; conditions: E. faecium >10^5 CFU/ml inoculated into 2 ml d-limonene
Escherichia coli = format: cell-based; design: key: NG = no growth; conditions: E. coli >10^5 CFU/ml inoculated into 2 ml d-limonene
Enterobacter cloacae = format: cell-based; design: key: NG = no growth
Klebsiella pneumoniae = format: cell-based; design: key: NG = no growth; conditions: K. pneumoniae >10^5 CFU/ml inoculated into 2 ml d-limonene
Serratia marcescens = format: cell-based; design: key: NG = no growth
Pseudomonas aeruginosa = format: cell-based; design: key: NG = no growth; conditions: P. aeruginosa >10^5 CFU/ml inoculated into 2 ml d-limonene
[6] = system: Acinetobacter baummii/haemolyticus; format: cell-based; design: key: NG = no growth; conditions: Ac. baum/haemo >10^5 CFU/ml inoculated into 2 ml d-limonene
[7] = system: Stenotrophomonas maltophila; format: cell-based; design: key: NG = no growth
[8] = system: gram-positive and gram-negative pathogens; format: cell-based
[9] = system: Staphylococcus aureus, Staphylococcus epidermidis, Streptococcus pyogenes, Streptococcus mutans, other beta hemolytic streptococci, Entercoccus faecalis …; format: cell-based; conditions: in vitro
[10] = system: Escherichia coli, Enterobactor cloacae, Klebsiella pneumoniae, Serratia marcescens, Pseudomonas aeruginosa, Acinetobacter baummii/haemolyticus, Paenibacillus …; format: cell-based; conditions: in vitro
[11] = system: Bacillus licheniformis, B. sphaericus, Bacillus cereus, Bacillus subtilus, Bacillus anthracis (Stearns and Ames strains); format: cell-based, Bacillus species

## O=[N+]([O-])[O-].[Ag+] [AgNO3, silver nitrate]
[1]
  zone of inhibition (average inhibition zone): 18 mm
[2]
  zone of inhibition: 16 mm
[3]; six Bacillus strains
  average zone of inhibition: 16 mm

## NC(=O)N/N=C/c1ccc([N+](=O)[O-])o1 [Furacin, nitrofurazone]
[3]; six Bacillus strains
  average zone of inhibition: 35 mm

## Vitamin E
[4]
  effect of earlier regimen on the condition: no improvement
psoriasis
  effect of earlier treatments on the psoriasis: no results

## O=C(O)c1cn(C2CC2)c2cc(N3CCNCC3)c(F)cc2c1=O [CIPRO]
psoriasis
  effect of earlier treatments on the psoriasis: Neither treatment was effective
  side effects: unpleasant side effects

## NCc1ccc(S(N)(=O)=O)cc1 [mafenide acetate]
[1]
  susceptibility of the strain to the product: susceptible
[2]
  susceptibility of the strain to the product: susceptible
[3]; six Bacillus strains
  average zone of inhibition: 36 mm

## COc1cc(C)c(/C=C/C(C)=C/C=C/C(C)=C/C(=O)O)c(C)c1C [SORIATANE]
psoriasis
  effect of earlier treatments on the psoriasis: Neither treatment was effective
  side effects: unpleasant side effects

## d-limonene
Staphylococcus aureus; 24 hr
  Growth at 24 hr: NG*
Staphylococcus aureus; 48 hr
  Growth at 48 hr: NG
Staphylococcus aureus; 72 hr
  Growth at 72 hr: NG
[5]; 24 hr
  Growth at 24 hr: NG
[5]; 48 hr
  Growth at 48 hr: NG
[5]; 72 hr
  Growth at 72 hr: NG
Enterococcus faecalis; 24 hr
  Growth at 24 hr: NG
Enterococcus faecalis; 48 hr
  Growth at 48 hr: NG
Enterococcus faecalis; 72 hr
  Growth at 72 hr: NG
Enterococcus faecium; 24 hr
  Growth at 24 hr: NG
Enterococcus faecium; 48 hr
  Growth at 48 hr: NG
Enterococcus faecium; 72 hr
  Growth at 72 hr: NG
Escherichia coli; 24 hr
  Growth at 24 hr: NG
Escherichia coli; 48 hr
  Growth at 48 hr: NG
Escherichia coli; 72 hr
  Growth at 72 hr: NG
Enterobacter cloacae
  Growth at 24 hr: NG
  Growth at 48 hr: NG
  Growth at 72 hr: NG
Klebsiella pneumoniae; 24 hr
  Growth at 24 hr: NG
Klebsiella pneumoniae; 48 hr
  Growth at 48 hr: NG
Klebsiella pneumoniae; 72 hr
  Growth at 72 hr: NG
Serratia marcescens
  Growth at 24 hr: NG*
  Growth at 48 hr: NG
  Growth at 72 hr: NG
Pseudomonas aeruginosa; 24 hr
  Growth at 24 hr: NG
Pseudomonas aeruginosa; 48 hr
  Growth at 48 hr: NG
Pseudomonas aeruginosa; 72 hr
  Growth at 72 hr: NG
[6]; 24 hr
  Growth at 24 hr: NG
[6]; 48 hr
  Growth at 48 hr: NG
[6]; 72 hr
  Growth at 72 hr: NG
[7]
  Growth at 24 hr: NG
  Growth at 48 hr: NG
  Growth at 72 hr: NG
[8]
  effectiveness in killing or inhibiting growth of gram-positive and gram-negative bacteria: effective in killing or inhibiting the growth
  time within which all pathogens tested were effectively eradicated: ≤ 24 h
[1]
  zone of inhibition (average inhibition zone): 30 mm
[2]
  zone of inhibition: 21 mm
[3]; six Bacillus strains
  average zone of inhibition: 21 mm
[9]
  effectiveness in eradicating gram-positive pathogens: effective in eradicating
[10]
  effectiveness in eradicating gram-negative pathogens: effective in eradicating
[11]
  effectiveness in eradicating Bacillus species: effective in eradicating

## OCl [NaOCl, sodium hypochlorite]
[1]
  susceptibility of the strain to the product: susceptible to all products tested except
[2]
  zone of inhibition: no zones of inhibition
[3]; only the inhibited strains P. Polymyxa, B. sphaericus and B. cereus
  average zone size: 16 mm
[3]; six Bacillus strains
  inhibition of the Bacillus strains (which strains): only inhibited P. Polymyxa, B. sphaericus and B. cereus
